Measured values published in PMC8286840, “Identifying SARS-CoV-2 antiviral compounds by screening for small molecule inhibitors of Nsp3 papain-like protease” (Biochemical Journal, 2021).
Where a name gives a salt, the structure may show the parent alone. Read-outs that look alike come from different tables or passages of the source.

Legend:
[1] = biological target: T1, SARS-CoV-2 PLpro (nsp3 1564–1878) (Severe acute respiratory syndrome coronavirus 2, UniProt P0DTD1); assay: biochemical; set-up: FRET-quenched peptide (Pro3) cleavage by PLpro, 10 min pre-incubation, slope over 20 min, normalised to no-compound control; conditions: read-out: % of control remaining
[2] = biological target: T1, SARS-CoV-2 PLpro (nsp3 1564–1878); assay: biochemical; set-up: FRET-quenched peptide (Pro3) cleavage by PLpro, 10 min pre-incubation, slope over 20 min, normalised to no-compound control; conditions: read-out: % of control remaining; remark: listed apart in the source
Description: The plates were organized with columns 3–22 containing the compounds; the remaining columns were used for reaction controls including substrate only and substrate with enzyme but no compound (Figure 3Aii). The PLpro enzyme was pre-incubated with the compounds for 10 min, and then the reaction was initiated by the addition of substrate. […] We incubated the inhibitors with PLpro before the enzymatic reaction so that the slow-binding inhibitors will not be missed out [21]. […] Fluorescence was read on a Spark multimode microplate reader (Tecan) with an excitation wavelength at 330 nm and emission wavelength at 420 nm. […] An amount of 5 µl of the enzyme was pre-incubated with compounds for 10 min before the addition of 15 µl substrate. Fluorescence was monitored at 2 min for 20 min with 3 min intervals giving a total of seven readings.

Nc1nc(NCCNc2ncc(-n3ccnc3)c(-c3ccc(Cl)cc3Cl)n2)ccc1[N+](=O)[O-] [CHIR-98014]
remaining activity at 3.75 µM ([1]; Well no.=5035, high concentration screen): 96.8%
remaining activity at 1.25 µM ([2]; Well no.=5035, low concentration screen): 101%

CC(=O)Nc1ccc(C(=O)Nc2ccccc2N)cc1 [CI994 (Tacedinaline)]
remaining activity at 3.75 µM ([1]; Well no.=5165, high concentration screen): 101%
remaining activity at 1.25 µM ([2]; Well no.=5165, low concentration screen): 103%

O=C(NOCC1CC1)c1ccc(F)c(F)c1Nc1ccc(I)cc1Cl [CI-1040]
remaining activity at 3.75 µM ([1]; Well no.=2741, high concentration screen): 102%
remaining activity at 1.25 µM ([2]; Well no.=2741, low concentration screen): 100%

O=C1NCCCc2c1oc1ccc(O)cc21 [CID755673]
remaining activity at 3.75 µM ([1]; Well no.=6214, high concentration screen): 96%
remaining activity at 1.25 µM ([2]; Well no.=6214, low concentration screen): 104%

Cc1cc2nc(NCCCO)n(CC(=O)c3cc(C(C)(C)C)c(O)c(C(C)(C)C)c3)c2cc1C [CID2858522]
remaining activity at 3.75 µM ([1]; Well no.=5503, high concentration screen): 109%
remaining activity at 1.25 µM ([2]; Well no.=5503, low concentration screen): 104%

O=C(Nc1ccc(CN2CCOCC2)cc1)c1ccc(-c2cccc(Cl)c2)o1 [CID 2011756]
remaining activity at 3.75 µM ([1]; Well no.=6582, high concentration screen): 101%
remaining activity at 1.25 µM ([2]; Well no.=6582, low concentration screen): 97.3%

Cc1ccc(-c2n[nH]c3c2C(c2cccc(O)c2)N(c2ccc(C(=O)O)cc2)C3=O)cc1 (stereo not shown) [CID 16020046]
remaining activity at 3.75 µM ([1]; Well no.=7821, high concentration screen): 102%
remaining activity at 1.25 µM ([2]; Well no.=7821, low concentration screen): 96.2%

O=S(=O)(c1ccc2c(c1)C(=NO)c1cc(S(=O)(=O)N3CCCCC3)ccc1-2)N1CCCCC1 [CIL56]
remaining activity at 3.75 µM ([1]; Well no.=6774, high concentration screen): 95.6%
remaining activity at 1.25 µM ([2]; Well no.=6774, low concentration screen): 98.2%

C[C@H](NC(=O)c1cc(Cl)ccc1Oc1ccc(F)cc1)c1ccc(C(=O)O)cc1 [CJ-42794]
remaining activity at 3.75 µM ([1]; Well no.=6222, high concentration screen): 94.2%
remaining activity at 1.25 µM ([2]; Well no.=6222, low concentration screen): 98%

O=C1CSC(c2cccc(Br)c2)N1c1cc(Cl)ccc1O (stereo not shown) [CK-548]
remaining activity at 3.75 µM ([1]; Well no.=6054, high concentration screen): 96.3%
remaining activity at 1.25 µM ([2]; Well no.=6054, low concentration screen): 97.5%

Cc1[nH]c2ccccc2c1CCNC(=O)c1cccs1 [CK-636]
remaining activity at 3.75 µM ([1]; Well no.=5636, high concentration screen): 100%
remaining activity at 1.25 µM ([2]; Well no.=5636, low concentration screen): 102%

Cc1[nH]c2ccccc2c1CCNC(=O)c1ccccc1F [CK-666]
remaining activity at 3.75 µM ([1]; Well no.=5720, high concentration screen): 95.4%
remaining activity at 1.25 µM ([2]; Well no.=5720, low concentration screen): 95.1%

C[C@H](Cc1ccc2c(c1)OC(C(=O)O)(C(=O)O)O2)NC[C@H](O)c1cccc(Cl)c1 [CL 316,243]
remaining activity at 3.75 µM ([1]; Well no.=276, high concentration screen): 101%
remaining activity at 1.25 µM ([2]; Well no.=276, low concentration screen): 96.9%

N#C[C@H]1[C@H](O)[C@@H](CO)O[C@H]1n1ccc(N)nc1=O [CNDAC (hydrochloride)]
remaining activity at 3.75 µM ([1]; Well no.=7866, high concentration screen): 94.8%
remaining activity at 1.25 µM ([2]; Well no.=7866, low concentration screen): 91.6%

N#Cc1cc2nc(O)c(O)nc2cc1[N+](=O)[O-] [CNQX disodium]
remaining activity at 3.75 µM ([1]; Well no.=681, high concentration screen): 102%
remaining activity at 1.25 µM ([2]; Well no.=681, low concentration screen): 101%

CCc1cccc(N(C)C(=N)Nc2cccc3ccccc23)c1 [CNS-1102]
remaining activity at 3.75 µM ([1]; Well no.=366, high concentration screen): 100%
remaining activity at 1.25 µM ([2]; Well no.=366, low concentration screen): 99.2%

S=C(N/N=C1\CCCc2cccnc21)N1CCN(c2ccccn2)CC1 [COTI-2]
remaining activity at 3.75 µM ([1]; Well no.=6156, high concentration screen): 110%
remaining activity at 1.25 µM ([2]; Well no.=6156, low concentration screen): 109%

CCCCCCC(C)(C)c1ccc([C@@H]2C[C@H](O)CC[C@H]2CCCO)c(O)c1 [CP55940]
remaining activity at 3.75 µM [1]: 106%
remaining activity at 1.25 µM [2]: 104%

COCCOc1ccc2c(c1)ncn2-c1ccc2cccc(N3CCC(N)CC3)c2n1 [CP 673451]
remaining activity at 3.75 µM ([1]; Well no.=5285, high concentration screen): 102%
remaining activity at 1.25 µM ([2]; Well no.=5285, low concentration screen): 97.9%

C[C@@H]([C@@H](O)c1ccc(O)cc1)N1CCC(O)(c2ccccc2)CC1 [CP-101,606]
remaining activity at 3.75 µM ([1]; Well no.=5843, high concentration screen): 93.1%
remaining activity at 1.25 µM ([2]; Well no.=5843, low concentration screen): 94.8%

Nc1nc2ccc(Cl)cc2n2c(-c3ccccc3)nnc12 [CP-66713]
remaining activity at 3.75 µM ([1]; Well no.=5624, high concentration screen): 96%
remaining activity at 1.25 µM ([2]; Well no.=5624, low concentration screen): 96.6%

CN(C)C(=O)[C@H](O)[C@H](Cc1ccccc1)NC(=O)c1cc2cc(Cl)ccc2[nH]1 [CP-91149]
remaining activity at 3.75 µM ([1]; Well no.=5021, high concentration screen): 104%
remaining activity at 1.25 µM ([2]; Well no.=5021, low concentration screen): 101%

COc1ccccc1CN[C@H]1C2CCN(CC2)[C@H]1C(c1ccccc1)c1ccccc1 [CP-96345]
remaining activity at 3.75 µM ([1]; Well no.=5867, high concentration screen): 96.7%
remaining activity at 1.25 µM ([2]; Well no.=5867, low concentration screen): 97.7%

C[C@@H]([C@@H](O)c1ccc(O)cc1)N1CCC(O)(c2ccccc2)CC1 [CP-101606 mesylate]
remaining activity at 3.75 µM ([1]; Well no.=5955, high concentration screen): 98.9%
remaining activity at 1.25 µM ([2]; Well no.=5955, low concentration screen): 98.1%

COc1cc2ncnc(-n3nc(-c4ccccn4)nc3N)c2cc1OC [CP-466722]
remaining activity at 3.75 µM ([1]; Well no.=5158, high concentration screen): 101%
remaining activity at 1.25 µM ([2]; Well no.=5158, low concentration screen): 103%

COCC(=O)NC/C=C/c1ccc2ncnc(Nc3ccc(Oc4ccc(C)nc4)c(C)c3)c2c1 [CP-724714]
remaining activity at 3.75 µM ([1]; Well no.=2837, high concentration screen): 103%
remaining activity at 1.25 µM ([2]; Well no.=2837, low concentration screen): 103%

Clc1cccc(COc2cncc(N3CCNCC3)n2)c1 [CP-809101 (hydrochloride)]
remaining activity at 3.75 µM ([1]; Well no.=7851, high concentration screen): 83.3%
remaining activity at 1.25 µM ([2]; Well no.=7851, low concentration screen): 95.1%

Cc1sc2c(c1C)C(c1ccc(Cl)cc1)=N[C@@H](CC(N)=O)c1nnc(C)n1-2 [CPI203]
remaining activity at 3.75 µM ([1]; Well no.=5824, high concentration screen): 98%
remaining activity at 1.25 µM ([2]; Well no.=5824, low concentration screen): 99.9%

Cc1ccc(-c2nc(N)nc3c2nnn3Cc2cccc(CO[C@H]3CCOC3)n2)o1 [CPI-444]
remaining activity at 3.75 µM ([1]; Well no.=8549, high concentration screen): 97%
remaining activity at 1.25 µM ([2]; Well no.=8549, low concentration screen): 105%

O=C(O)CCCCC(CCSCc1ccccc1)SCc1ccccc1 (stereo not shown) [CPI-613]
remaining activity at 3.75 µM ([1]; Well no.=5083, high concentration screen): 88.8%
remaining activity at 1.25 µM ([2]; Well no.=5083, low concentration screen): 97.7%

O=C(Nc1ccc(Cl)cc1CN1C(=O)c2ccccc2C1=O)c1ccccc1O [CPPHA]
remaining activity at 3.75 µM ([1]; Well no.=7243, high concentration screen): 97.3%
remaining activity at 1.25 µM ([2]; Well no.=7243, low concentration screen): 101%

CC[C@@H](CO)Nc1nc(NCc2ccc(-c3ccccn3)cc2)c2ncn(C(C)C)c2n1 [CR8, (S)-Isomer]
remaining activity at 3.75 µM ([1]; Well no.=2343, high concentration screen): 102%
remaining activity at 1.25 µM ([2]; Well no.=2343, low concentration screen): 103%

CC1(C)CCC(NC(=O)[C@@H](N)CCC(=O)O)CC1 [CR 2249]
remaining activity at 3.75 µM ([1]; Well no.=901, high concentration screen): 105%
remaining activity at 1.25 µM ([2]; Well no.=901, low concentration screen): 108%

Cc1cc(C)c(NC(=O)C[C@H](CC(=O)O)c2cccc3ccccc23)c(C(=O)N2CCC3(CCCC3)CC2)c1 [CR 2945]
remaining activity at 3.75 µM ([1]; Well no.=1111, high concentration screen): 98.1%
remaining activity at 1.25 µM ([2]; Well no.=1111, low concentration screen): 105%

CC[C@@H](N)CNc1ccnc(-c2cc(-c3cnn(C)c3)ccc2O)n1 [CRT0066101 dihydrochloride]
remaining activity at 3.75 µM ([1]; Well no.=6498, high concentration screen): 90.1%
remaining activity at 1.25 µM ([2]; Well no.=6498, low concentration screen): 89.1%

C#Cc1cccc(Nc2ncnc3cc(OC)c(OCCCCCCC(=O)NO)cc23)c1 [CUDC-101]
remaining activity at 3.75 µM ([1]; Well no.=5097, high concentration screen): 108%
remaining activity at 1.25 µM ([2]; Well no.=5097, low concentration screen): 104%

CN[C@@H](C)C(=O)N[C@H](C(=O)N1CCC[C@H]1C(=O)Nc1sc(-c2ncco2)nc1-c1ccccc1)C1CCCCC1 [CUDC-427]
remaining activity at 3.75 µM ([1]; Well no.=7062, high concentration screen): 92.1%
remaining activity at 1.25 µM ([2]; Well no.=7062, low concentration screen): 99.8%

CS(=O)(=O)Nc1ccc(-c2coc3cc(OCc4cccc(C(=O)O)c4)ccc3c2=O)cc1 [CVT-10216]
remaining activity at 3.75 µM ([1]; Well no.=5513, high concentration screen): 108%
remaining activity at 1.25 µM ([2]; Well no.=5513, low concentration screen): 105%
